How the values were obtained:
Assay type in all cases: functional, cell-based
KB = assay: Cytotoxicity against human KB cells
L1210 = assay: Cytotoxicity against mouse L1210 cells
P388 = assay: Cytotoxicity against mouse P388 cells

Measured: IC50

C=C1CCC[C@H]2[C@](C)(Cc3cc(C(=O)OC)c(O)c(NC4=CC(=O)C(O)=C(C[C@]5(C)[C@@H](C)CC[C@]6(C)C(C)=CCC[C@@H]56)C4=O)c3O)[C@@H](C)CC[C@]12C [NAKIJIQUINONE E]
> 10 µg/mL: KB | L1210 | P388

COC(=O)c1cc(C[C@]2(C)[C@@H](C)CC[C@]3(C)C(C)=CCC[C@@H]23)c(O)c(NC2=CC(=O)C(O)=C(C[C@]3(C)[C@@H](C)CC[C@]4(C)C(C)=CCC[C@@H]34)C2=O)c1O [NAKIJIQUINONE F]
> 10 µg/mL: KB | L1210 | P388

From ChEMBL document CHEMBL1154505, “Nakijiquinones E and F, new dimeric sesquiterpenoid quinones from marine sponge” (Bioorg Med Chem, 2009)
